Assay results taken from patent US20090253718A1, “Pharmaceutical Compounds” (Astex Therapeutics Limited, priority 2006, published 2009).

Assays:
MM1 cells = conditions: continuous delivery using osmotic pumps, syngeneic rats; cited from earlier work
rat MM1 hepatoma cells = conditions: cited from earlier work
[1] = tested on: isolated rabbit urinary bladder smooth muscle; conditions: cited from earlier work
ROCK-II (h) = ROCK-II (h) (Homo sapiens, UniProt O75116); experiment: ROCK-II (h) radiometric kinase assay; assay type: biochemical; conditions: read-out: IC50 anti-ROCK-II activity
Chain of ROCK-II (h) (O75116 whole entry): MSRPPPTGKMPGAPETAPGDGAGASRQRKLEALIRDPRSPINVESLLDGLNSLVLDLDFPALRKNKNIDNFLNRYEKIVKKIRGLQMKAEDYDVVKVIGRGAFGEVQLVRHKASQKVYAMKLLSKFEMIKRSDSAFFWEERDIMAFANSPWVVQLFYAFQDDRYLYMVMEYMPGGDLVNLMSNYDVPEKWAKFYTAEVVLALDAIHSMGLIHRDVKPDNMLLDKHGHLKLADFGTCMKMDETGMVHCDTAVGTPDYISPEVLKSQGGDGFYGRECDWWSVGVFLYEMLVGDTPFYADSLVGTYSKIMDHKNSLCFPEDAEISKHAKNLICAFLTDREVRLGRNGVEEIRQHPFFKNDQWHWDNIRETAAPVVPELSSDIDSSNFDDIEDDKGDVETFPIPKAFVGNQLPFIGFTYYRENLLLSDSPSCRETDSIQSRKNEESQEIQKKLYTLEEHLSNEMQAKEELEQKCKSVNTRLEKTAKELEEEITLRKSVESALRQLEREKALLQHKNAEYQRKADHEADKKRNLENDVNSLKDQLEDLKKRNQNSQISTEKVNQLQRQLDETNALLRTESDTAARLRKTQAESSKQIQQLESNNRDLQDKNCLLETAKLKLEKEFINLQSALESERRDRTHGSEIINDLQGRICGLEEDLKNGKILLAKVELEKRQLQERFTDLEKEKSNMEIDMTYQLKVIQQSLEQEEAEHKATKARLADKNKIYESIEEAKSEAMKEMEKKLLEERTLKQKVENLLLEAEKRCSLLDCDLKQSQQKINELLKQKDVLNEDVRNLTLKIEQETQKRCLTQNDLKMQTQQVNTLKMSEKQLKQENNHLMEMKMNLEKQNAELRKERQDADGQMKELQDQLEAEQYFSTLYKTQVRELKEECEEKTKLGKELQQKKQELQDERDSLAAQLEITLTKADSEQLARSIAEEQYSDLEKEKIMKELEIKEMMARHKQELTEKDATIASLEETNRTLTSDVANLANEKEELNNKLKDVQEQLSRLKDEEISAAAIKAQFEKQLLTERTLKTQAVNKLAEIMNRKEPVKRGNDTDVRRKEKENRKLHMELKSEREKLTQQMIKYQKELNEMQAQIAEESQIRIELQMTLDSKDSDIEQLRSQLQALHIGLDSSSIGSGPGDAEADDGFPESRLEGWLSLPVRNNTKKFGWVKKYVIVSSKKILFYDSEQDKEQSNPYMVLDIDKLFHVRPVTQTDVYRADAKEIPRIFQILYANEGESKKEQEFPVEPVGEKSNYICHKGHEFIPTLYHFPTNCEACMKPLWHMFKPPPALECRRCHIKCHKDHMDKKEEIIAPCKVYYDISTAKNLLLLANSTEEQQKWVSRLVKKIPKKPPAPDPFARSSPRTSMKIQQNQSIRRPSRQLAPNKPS
Description: In a final reaction volume of 25 μl, ROCK-II (h) (5-10 mU) is incubated with 50 mM Tris pH 7.5, 0.1 mM EGTA, 30 μM […], 10 mM MgAcetate and [γ-^33P-ATP] (specific activity approx. 500 cpm/pmol, concentration as required). The reaction is initiated by the addition of the MgATP mix. After incubation for 40 minutes at room temperature, the reaction is stopped by the addition of 5 μl of a 3% phosphoric acid solution. 10 μl of the reaction is then spotted onto a P30 filtermat and washed three times for 5 minutes in 75 mM phosphoric acid and once in methanol prior to drying and scintillation counting.
The compound of example 29 was tested for anti-ROCK-II activity (assay as described above): […]

Row | IC50 (ROCK-II (h)) [nM] | SMILES | dissemination of MM1 cells (MM1 cells) | Rho-mediated activation of actomyosin (rat MM1 hepatoma cells) | invasive activity (rat MM1 hepatoma cells) | bethanechol-evoked contractions [1]
1 |  | C[C@@H](N)[C@H]1CC[C@H](C(=O)Nc2ccncc2)CC1 [Example Y-27632] | considerably reduced | blocked | blocked | attenuates
2 | < 100 | NC(c1ccc(Cl)cc1)C1CCN(c2ccnc3[nH]ccc23)CC1 (centres unmarked) [Example 29, C-(4-Chlorophenyl)-C-[1-(1H-pyrrolo[2,3-b]pyridin-4-yl)piperidin-4-yl]methylamine] |  |  |  | 
